Test system: Src family kinases
Assay: inhibition of tyrosine kinase
Format: biochemical
From the text: […]. […] […]. […] […]

inhibition of kinase (in words): not
Structure (SMILES): Cc1ccc(NC(=O)c2ccc(CN3CCN(C)CC3)cc2)cc1Nc1nccc(-c2cccnc2)n1 [STI571, N-[4-methyl-3-(4-pyridin-3-yl-pyrimidin-2-ylamino)-phenyl]-4-(4-methyl-piperazin-1-ylmethyl)-benzamide]
